Measurements taken from ChEMBL document CHEMBL1909294, “Translating clinical findings into knowledge in drug safety evaluation--drug induced liver injury prediction system (DILIps)” (PLoS Comput Biol, 2011).
*1 amine or outer side, *2 acyl side, *3 side chain or, on linkers, in order; H or OH if unused. Where a SMILES comes first, the peptide text is derived from it. Bridges are numbered along the chain shown (N, C = ends). [ ]: non-standard residue; d: D form. The star is where a group is joined. pTerphenylCO(4''-OnC5H11) = CCCCCOc1ccc(-c2ccc(-c3ccc(C(=O)*)cc3)cc2)cc1; Orn(4R-OH,5R-OH) = O=C([C@H](C[C@@H](O)[C@@H](O)N[*:3])N[*:1])[*:2]; hTyr(3S-OH,4S-OH) = N[C@H](C(=O)O)[C@H](O)[C@@H](O)c1ccc(O)cc1; Pro(3S-OH,4S-Me) = C[C@H]1CN[C@H](C(=O)O)[C@H]1O; Hyp = O=C(O)[C@@H]1C[C@@H](O)CN1

How the values were obtained:
[1] = tested on: Hepatotoxicity;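 for HepSE bilirubinemia: bilirubinemia hepatic side effect score drawn from the DILIps training data, a prediction system for drug-induced liver injury; call rule not given here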;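 for HepSE cholecystitis: Cholecystitis-related hepatic side effect score drawn from the DILIps (drug-induced liver injury prediction) training data set; call rule not given here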;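 for HepSE cholelithiasis: hepatic side effect score for cholelithiasis, drawn from the DILIps training data for predicting drug-induced liver injury; call rule not given here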;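 for HepSE cirrhosis: cirrhosis hepatic side effect score taken from the DILIps (drug-induced liver injury prediction) training set; call rule not given here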;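 for HepSE elevated liver function tests: hepatic side effect score for raised liver function tests, as recorded in the DILIps training set used for predicting drug-induced liver injury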; for HepSE hepatic failure: call rule not given here;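 for HepSE hepatomegaly: hepatic side effect score for hepatomegaly, taken from the training set of the DILIps drug-induced liver injury prediction system; call rule not given here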
[2] = tested on: Hepatotoxicity; remark: listed apart in the source;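 for HepSE bilirubinemia: bilirubinemia hepatic side effect score drawn from the DILIps training data, a prediction system for drug-induced liver injury; call rule not given here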;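 for HepSE cholecystitis: Cholecystitis-related hepatic side effect score drawn from the DILIps (drug-induced liver injury prediction) training data set; call rule not given here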;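 for HepSE cholelithiasis: hepatic side effect score for cholelithiasis, drawn from the DILIps training data for predicting drug-induced liver injury; call rule not given here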;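 for HepSE cirrhosis: cirrhosis hepatic side effect score taken from the DILIps (drug-induced liver injury prediction) training set; call rule not given here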;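 for HepSE elevated liver function tests: hepatic side effect score for raised liver function tests, as recorded in the DILIps training set used for predicting drug-induced liver injury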; for HepSE hepatic failure: call rule not given here
[3] = tested on: Hepatotoxicity; remark: listed apart in the source;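 for HepSE bilirubinemia: bilirubinemia hepatic side effect score drawn from the DILIps training data, a prediction system for drug-induced liver injury; call rule not given here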;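 for HepSE cholecystitis: Cholecystitis-related hepatic side effect score drawn from the DILIps (drug-induced liver injury prediction) training data set; call rule not given here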;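 for HepSE cholelithiasis: hepatic side effect score for cholelithiasis, drawn from the DILIps training data for predicting drug-induced liver injury; call rule not given here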;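 for HepSE cirrhosis: cirrhosis hepatic side effect score taken from the DILIps (drug-induced liver injury prediction) training set; call rule not given here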;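 for HepSE elevated liver function tests: hepatic side effect score for raised liver function tests, as recorded in the DILIps training set used for predicting drug-induced liver injury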; for HepSE hepatic failure: call rule not given here
[4] = tested on: Hepatotoxicity; remark: listed apart in the source;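 for HepSE bilirubinemia: bilirubinemia hepatic side effect score drawn from the DILIps training data, a prediction system for drug-induced liver injury; call rule not given here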;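 for HepSE cholecystitis: Cholecystitis-related hepatic side effect score drawn from the DILIps (drug-induced liver injury prediction) training data set; call rule not given here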;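 for HepSE cholelithiasis: hepatic side effect score for cholelithiasis, drawn from the DILIps training data for predicting drug-induced liver injury; call rule not given here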;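 for HepSE cirrhosis: cirrhosis hepatic side effect score taken from the DILIps (drug-induced liver injury prediction) training set; call rule not given here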;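 for HepSE elevated liver function tests: hepatic side effect score for raised liver function tests, as recorded in the DILIps training set used for predicting drug-induced liver injury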; for HepSE hepatic failure: call rule not given here
[5] = tested on: Hepatotoxicity; remark: listed apart in the source; for HepSE hepatic failure: call rule not given here
[6] = tested on: Hepatotoxicity; remark: listed apart in the source; for HepSE hepatic failure: call rule not given here
[7] = tested on: Hepatotoxicity; remark: listed apart in the source
[8] = tested on: Hepatotoxicity; remark: listed apart in the source
[9] = tested on: Hepatotoxicity; remark: listed apart in the source
[10] = tested on: Hepatotoxicity; remark: listed apart in the source
[11] = tested on: Hepatotoxicity; remark: listed apart in the source
[12] = tested on: Hepatotoxicity; remark: listed apart in the source
[13] = tested on: Hepatotoxicity; remark: listed apart in the source
[14] = tested on: Hepatotoxicity; remark: listed apart in the source

COc1ccnc(C[S+]([O-])c2nc3ccc(OC(F)F)cc3[nH]2)c1OC (configuration not stated) [PANTOPRAZOLE]
HepSE_bilirubinemia [1]: 1 | HepSE_cholecystitis [2]: 1 | HepSE_cholelithiasis [3]: 1 | HepSE_cirrhosis [4]: 0 | HepSE_elevated liver function tests [5]: 0 | HepSE_hepatic failure [6]: 1 | HepSE_hepatic necrosis [7]: 0 | HepSE_hepatitis [8]: 1 | HepSE_hepatomegaly [9]: 0 | HepSE_jaundice [10]: 1 | HepSE_liver disease [11]: 0 | HepSE_liver fatty [12]: 0 | HepSE_liver function tests abnormal [13]: 1 | HepSE_Combined Scores [14]: 7

COc1cc2ncnc(Nc3ccc(F)c(Cl)c3)c2cc1OCCCN1CCOCC1 [GEFITINIB]
HepSE_bilirubinemia [1]: 0 | HepSE_cholecystitis [2]: 0 | HepSE_cholelithiasis [3]: 0 | HepSE_cirrhosis [4]: 0 | HepSE_elevated liver function tests [5]: 0 | HepSE_hepatic failure [6]: 0 | HepSE_hepatic necrosis [7]: 0 | HepSE_hepatitis [8]: 0 | HepSE_hepatomegaly [9]: 0 | HepSE_jaundice [10]: 0 | HepSE_liver disease [11]: 0 | HepSE_liver fatty [12]: 0 | HepSE_liver function tests abnormal [13]: 0 | HepSE_Combined Scores [14]: 0

CCN(CC)CCOC(=O)c1ccc(N)cc1Cl [CHLOROPROCAINE]
HepSE_bilirubinemia [1]: 0 | HepSE_cholecystitis [2]: 0 | HepSE_cholelithiasis [3]: 0 | HepSE_cirrhosis [4]: 0 | HepSE_elevated liver function tests [5]: 0 | HepSE_hepatic failure [6]: 0 | HepSE_hepatic necrosis [7]: 0 | HepSE_hepatitis [8]: 0 | HepSE_hepatomegaly [9]: 0 | HepSE_jaundice [10]: 0 | HepSE_liver disease [11]: 0 | HepSE_liver fatty [12]: 0 | HepSE_liver function tests abnormal [13]: 0 | HepSE_Combined Scores [14]: 0

Nc1c2c(nc3ccccc13)CCCC2 [TACRINE]
HepSE_bilirubinemia ([1]; Liver): 0 | HepSE_cholecystitis ([2]; Liver): 1 | HepSE_cholelithiasis ([3]; Liver): 1 | HepSE_cirrhosis ([4]; Liver): 0 | HepSE_elevated liver function tests ([5]; Liver): 0 | HepSE_hepatic failure ([6]; Liver): 0 | HepSE_hepatic necrosis ([7]; Liver): 0 | HepSE_hepatitis ([8]; Liver): 0 | HepSE_hepatomegaly ([9]; Liver): 0 | HepSE_jaundice ([10]; Liver): 0 | HepSE_liver disease ([11]; Liver): 0 | HepSE_liver fatty ([12]; Liver): 0 | HepSE_liver function tests abnormal ([13]; Liver): 0 | HepSE_Combined Scores ([14]; Liver): 2

CCCCCOc1ccc(-c2ccc(-c3ccc(C(=O)N[C@H]4C[C@@H](O)[C@@H](O)NC(=O)[C@@H]5[C@@H](O)[C@@H](C)CN5C(=O)[C@H]([C@@H](C)O)NC(=O)[C@H]([C@H](O)[C@@H](O)c5ccc(O)cc5)NC(=O)[C@@H]5C[C@@H](O)CN5C(=O)[C@H]([C@@H](C)O)NC4=O)cc3)cc2)cc1 [ANIDULAFUNGIN] ({pTerphenylCO(4''-OnC5H11)}-[Orn(4R-OH,5R-OH)]T[Hyp][hTyr(3S-OH,4S-OH)]T[Pro(3S-OH,4S-Me)]; lactam 1-C)
HepSE_bilirubinemia [1]: 0 | HepSE_cholecystitis [2]: 0 | HepSE_cholelithiasis [3]: 0 | HepSE_cirrhosis [4]: 0 | HepSE_elevated liver function tests [5]: 0 | HepSE_hepatic failure [6]: 0 | HepSE_hepatic necrosis [7]: 1 | HepSE_hepatitis [8]: 0 | HepSE_hepatomegaly [9]: 0 | HepSE_jaundice [10]: 0 | HepSE_liver disease [11]: 0 | HepSE_liver fatty [12]: 0 | HepSE_liver function tests abnormal [13]: 1 | HepSE_Combined Scores [14]: 2

CC(C)NCC(O)c1ccc(NS(C)(=O)=O)cc1 (configuration not stated) [SOTALOL]
HepSE_bilirubinemia [1]: 0 | HepSE_cholecystitis [2]: 0 | HepSE_cholelithiasis [3]: 0 | HepSE_cirrhosis [4]: 0 | HepSE_elevated liver function tests [5]: 0 | HepSE_hepatic failure [6]: 0 | HepSE_hepatic necrosis [7]: 0 | HepSE_hepatitis [8]: 0 | HepSE_hepatomegaly [9]: 0 | HepSE_jaundice [10]: 0 | HepSE_liver disease [11]: 0 | HepSE_liver fatty [12]: 0 | HepSE_liver function tests abnormal [13]: 0 | HepSE_Combined Scores [14]: 0

COc1cc(C)c(/C=C/C(C)=C/C=C/C(C)=C/C(=O)O)c(C)c1C [ACITRETIN]
HepSE_bilirubinemia [1]: 0 | HepSE_cholecystitis [2]: 0 | HepSE_cholelithiasis [3]: 0 | HepSE_cirrhosis [4]: 0 | HepSE_elevated liver function tests [5]: 1 | HepSE_hepatic failure [6]: 0 | HepSE_hepatic necrosis [7]: 0 | HepSE_hepatitis [8]: 1 | HepSE_hepatomegaly [9]: 0 | HepSE_jaundice [10]: 1 | HepSE_liver disease [11]: 0 | HepSE_liver fatty [12]: 0 | HepSE_liver function tests abnormal [13]: 0 | HepSE_Combined Scores [14]: 3

CC(C)N(CCC(C(N)=O)(c1ccccc1)c1ccccn1)C(C)C (configuration not stated) [DISOPYRAMIDE]
HepSE_bilirubinemia [1]: 0 | HepSE_cholecystitis [2]: 0 | HepSE_cholelithiasis [3]: 0 | HepSE_cirrhosis [4]: 0 | HepSE_elevated liver function tests [5]: 0 | HepSE_hepatic failure [6]: 0 | HepSE_hepatic necrosis [7]: 0 | HepSE_hepatitis [8]: 0 | HepSE_hepatomegaly [9]: 0 | HepSE_jaundice [10]: 1 | HepSE_liver disease [11]: 0 | HepSE_liver fatty [12]: 0 | HepSE_liver function tests abnormal [13]: 0 | HepSE_Combined Scores [14]: 1

CO/N=C(\C(=O)N[C@@H]1C(=O)N2C(C(=O)O)=CCS[C@H]12)c1csc(N)n1 [CEFTIZOXIME]
HepSE_bilirubinemia [1]: 0 | HepSE_cholecystitis [2]: 0 | HepSE_cholelithiasis [3]: 0 | HepSE_cirrhosis [4]: 0 | HepSE_elevated liver function tests [5]: 0 | HepSE_hepatic failure [6]: 0 | HepSE_hepatic necrosis [7]: 0 | HepSE_hepatitis [8]: 0 | HepSE_hepatomegaly [9]: 0 | HepSE_jaundice [10]: 0 | HepSE_liver disease [11]: 0 | HepSE_liver fatty [12]: 0 | HepSE_liver function tests abnormal [13]: 0 | HepSE_Combined Scores [14]: 0

O=P1(N(CCCl)CCCl)NCCCO1 (configuration not stated) [CYCLOPHOSPHAMIDE ANHYDROUS]
HepSE_bilirubinemia ([1]; Liver): 1 | HepSE_cholecystitis ([2]; Liver): 0 | HepSE_cholelithiasis ([3]; Liver): 0 | HepSE_cirrhosis ([4]; Liver): 0 | HepSE_elevated liver function tests ([5]; Liver): 0 | HepSE_hepatic failure ([6]; Liver): 0 | HepSE_hepatic necrosis ([7]; Liver): 0 | HepSE_hepatitis ([8]; Liver): 0 | HepSE_hepatomegaly ([9]; Liver): 1 | HepSE_jaundice ([10]; Liver): 1 | HepSE_liver disease ([11]; Liver): 0 | HepSE_liver fatty ([12]; Liver): 0 | HepSE_liver function tests abnormal ([13]; Liver): 0 | HepSE_Combined Scores ([14]; Liver): 3

CC(O)(P(=O)(O)O)P(=O)(O)O [ETIDRONIC ACID]
HepSE_bilirubinemia [1]: 0 | HepSE_cholecystitis [2]: 0 | HepSE_cholelithiasis [3]: 0 | HepSE_cirrhosis [4]: 0 | HepSE_elevated liver function tests [5]: 0 | HepSE_hepatic failure [6]: 0 | HepSE_hepatic necrosis [7]: 0 | HepSE_hepatitis [8]: 0 | HepSE_hepatomegaly [9]: 0 | HepSE_jaundice [10]: 0 | HepSE_liver disease [11]: 0 | HepSE_liver fatty [12]: 0 | HepSE_liver function tests abnormal [13]: 0 | HepSE_Combined Scores [14]: 0

CCCCc1nc(Cl)c(CO)n1Cc1ccc(-c2ccccc2-c2nn[nH]n2)cc1 [LOSARTAN]
HepSE_bilirubinemia [1]: 0 | HepSE_cholecystitis [2]: 0 | HepSE_cholelithiasis [3]: 0 | HepSE_cirrhosis [4]: 0 | HepSE_elevated liver function tests [5]: 0 | HepSE_hepatic failure [6]: 0 | HepSE_hepatic necrosis [7]: 0 | HepSE_hepatitis [8]: 1 | HepSE_hepatomegaly [9]: 0 | HepSE_jaundice [10]: 1 | HepSE_liver disease [11]: 0 | HepSE_liver fatty [12]: 0 | HepSE_liver function tests abnormal [13]: 0 | HepSE_Combined Scores [14]: 2

CCCCC(C)(O)C/C=C/[C@H]1[C@H](O)CC(=O)[C@@H]1CCCCCCC(=O)OC (some centres not stated) [MISOPROSTOL]
HepSE_bilirubinemia [1]: 0 | HepSE_cholecystitis [2]: 0 | HepSE_cholelithiasis [3]: 0 | HepSE_cirrhosis [4]: 0 | HepSE_elevated liver function tests [5]: 0 | HepSE_hepatic failure [6]: 0 | HepSE_hepatic necrosis [7]: 0 | HepSE_hepatitis [8]: 0 | HepSE_hepatomegaly [9]: 0 | HepSE_jaundice [10]: 0 | HepSE_liver disease [11]: 0 | HepSE_liver fatty [12]: 0 | HepSE_liver function tests abnormal [13]: 0 | HepSE_Combined Scores [14]: 0
